Assay results published in patent US11207290B2, “Combinations of cannabinoids and N-acylethanolamines” (SciSparc Ltd., priority 2015, dated 2021).
Entries after “also recorded” stand apart in the source; their conditions may differ.

Key:
[1] = Body weight gain during the study; assay type: in vivo, mice; settings: vs vehicle group 1M
Procedure: (§1) Animals—Mice, strain ICR, male, 8 weeks of age at study initiation. The average animal body weight at study initiation was in the range of 31.97±1.61 g. […] Animals were randomly allocated to individual cages on the day of reception. Animals were acclimated for seven to nine days.
(§2) Test item was administered […] at a dose volume of 10 ml/kg according to the doses in Table 1. Dosing was performed 15 minutes before each of the behavioral tests.
(§3) Statistical analysis—Numerical results were given as means±standard error of the mean. The results were subjected either to a T-test or to two-way ANOVA, followed by Bonferroni post-hoc contrast analysis between the groups where applicable. A probability of less than 5% (p<0.05) was regarded as significant.

Mice, strain ICR [2] = assay: Open Field (OF) test; assay type: in vivo; settings: 15 minute session; for Average animal velocity (uncontrolled movement): FIG. 2
Procedure: as §1, §2
Open Field (OF) tests were performed as follows—Fifteen minutes after test item/vehicle administration, mice were placed at the center of an open field box (43×43×40 cm) between 9 AM and 5 PM. On each side of the open field box, two frames placed at 2 and 5 cm height with 16 photocell beams per side ensure movement detection. The computer defined grid lines that divided the open field into two compartments: margin and center. Several variables were recorded during a 15 minute session of spontaneous activity including: time spent moving, traveled distance, time spent and number of visits to the central compartment.
as §3

Mice, strain ICR [3] = assay: Tail pinch test (modified Haffner's method); assay type: in vivo; settings: for Latency to respond: vs control
Procedure: as §1, §2
Tail pinch tests were performed as follows, according to the modified Haffner's method (as depicted in Takagi et al., Jpn. J. Pharmacol., 1966, 16, Pages 287-294)—Mice were pretested by pinching their tail base with an artery clip (1.5 mm width, constant force), and only the mice that show a nociceptive response such as biting the clip or vocalizing within 2 sec were used for experiments. […] To prevent tissue damage, the pressure stimuli was not applied for more than 10 sec. After drug treatments, the nociceptive response in the tail-pinch test was measured at varying intervals.
as §3

adult TS patients [4] = settings: single dose of 5, 7.5 or 10 mg THC compared with placebo, p=0.015; cited from earlier work
adult TS patients [5] = settings: 2.5 mg THC per day titrated to 10 mg, vs placebo, visits 3 and 4, p<0.05; cited from earlier work
[6] = widely considered; Buxbaum 1972; cited from earlier work

## CCCCCc1cc(O)c2c(c1)OC(C)(C)[C@@H]1CCC(C)=C[C@@H]21 [THC, (−)-trans-Δ9-tetrahydrocannabinol]
[1]; group 2M: THC 50 mg/kg, FIG. 1A
  Body weight (BW) gain: characteristic weight gain
[1]; group 3M: THC 12.5 mg/kg, FIG. 1B
  Body weight (BW) gain: increased; also recorded: characteristic weight gain
Mice, strain ICR [2]; group 2M: THC 50 mg/kg, vs control 1M
  Average animal velocity (uncontrolled movement): significantly increased the velocity
Mice, strain ICR [2]; group 2M: THC 50 mg/kg, FIG. 3
  Total time spent in the center of an arena (measure of anxiety): decreased the time spent in the center
Mice, strain ICR [2]; group 3M: THC 12.5 mg/kg
  Average animal velocity (uncontrolled movement): had no effect
Mice, strain ICR [3]; group 2M: THC 50 mg/kg
  Analgesic effect at 15′ post administration: only group 4M exhibited an analgesic effect
Mice, strain ICR [3]; group 2M: high dose THC 50 mg/kg, FIG. 4A
  Latency to respond: higher compared to the control
Mice, strain ICR [3]; group 3M: THC 12.5 mg/kg
  Analgesic effect at 15′ post administration: exhibited an analgesic effect
Mice, strain ICR [3]; group 3M: low dose THC 12.5 mg/kg, FIG. 4B
  Latency to respond: higher compared to the control
Adult TS patients [4]
  Tourette Syndrome Symptom List (TSSL) self-rating: significant global tic improvement
Adult TS patients [5]
  Global Clinical Impression Scale (GCIS): significant difference
[6]
  Minimal effective dose of THC as an analgesic: 20 mg/kg
